# From patent publication US8541460B2, “PDK-1/Akt signaling inhibitors” (The Ohio State University, priority 2003, dated 2013)
# Columns and labels:
# COLO 205 = assay: NCI DTP cell line screen (SRB), Colon Cancer; assay type: cell-based, human
# Protocol: (§1) Screening of compounds 70 and 71 against several cancer cell lines The human tumor cell lines of the cancer screening panel are grown in RPMI 1640 medium containing 5% fetal bovine serum and 2 mM L-glutamine. For a typical screening experiment, cells are inoculated into 96 well microtiter plates in 100 μL at plating densities ranging from 5,000 to 40,000 cells/well depending on the doubling time of individual cell lines. After cell inoculation, the microtiter plates are incubated at 37° C., 5% CO2, 95% air and 100% relative humidity for 24 h prior to addition of experimental drugs.
# (§2) After 24 h, two plates of each cell line are fixed in situ with TCA, to represent a measurement of the cell population for each cell line at the time of drug addition (Tz). Experimental drugs are solubilized in dimethyl sulfoxide at 400-fold the desired final maximum test concentration and stored frozen prior to use. At the time of drug addition, an aliquot of frozen concentrate is thawed and diluted to twice the desired final maximum test concentration with complete medium containing 50 μg/ml gentamicin. Additional four, 10-fold or ½ log serial dilutions are made to provide a total of five drug concentrations plus control. Aliquots of 100 μl of these different drug dilutions are added to the appropriate microtiter wells already containing 100 μl of medium, resulting in the required final drug concentrations.
# (§3) Following drug addition, the plates are incubated for an additional 48 h at 37° C., 5% CO2, 95% air, and 100% relative humidity. For adherent cells, the assay is terminated by the addition of cold TCA. Cells are fixed in situ by the gentle addition of 50 μl of cold 50% (w/v) TCA (final concentration, 10% TCA) and incubated for 60 minutes at 4° C. The supernatant is discarded, and the plates are washed five times with tap water and air dried. Sulforhodamine B (SRB) solution (100 μl) at 0.4% (w/v) in 1% acetic acid is added to each well, and plates are incubated for 10 minutes at room temperature. After staining, unbound dye is removed by washing five times with 1% acetic acid and the plates are air dried. Bound stain is subsequently solubilized with 10 mM trizma base, and the absorbance is read on an automated plate reader at a wavelength of 515 nm. For suspension cells, the methodology is the same except that the assay is terminated by fixing settled cells at the bottom of the wells by gently adding 50 μl of 80% TCA (final concentration, 16% TCA). Using the seven absorbance measurements [time zero, (Tz), control growth, (C), and test growth in the presence of drug at the five concentration levels (Ti)], the percentage growth is calculated at each of the drug concentrations levels. Percentage growth inhibition is calculated as: [(Ti−Tz)/(C−Tz)]×100 for concentrations for which Ti>/=Tz [(Ti−Tz)/Tz]×100 for concentrations for which Ti<Tz
# (§4) Three dose response parameters are calculated for each experimental agent. […] The drug concentration resulting in total growth inhibition (TGI) is calculated from Ti=Tz. […] Values are calculated for each of these three parameters if the level of activity is reached; however, if the effect is not reached or is exceeded, the value for that parameter is expressed as greater or less than the maximum or minimum concentration tested.
# (§5) The methods described were used to test compounds 70 and 71 on a panel of sixty cell lines under a screening service provided by the Developmental Therapeutics Program at the National Institutes of Health. Shown in FIG. 1C are 1, RPMI-8226 leukemia cells; 2; NCI-H322M non-small cell lung cancer cells; 3, HT29 colon cancer cells; 4, U251 CNS cancer cells; 5, SK-MEL-28 melanoma cancer cells; 6, SK-OV-3 ovarian cancer cells; 7, RXF 393 renal cancer cells; 8, PC-3 prostate cancer cells; 9, MDA-MB-231 breast cancer cells.
# MALME-3M = assay: NCI DTP cell line screen (SRB), Melanoma; assay type: cell-based
# SK-MEL-5 = assay: NCI DTP cell line screen (SRB), Melanoma; assay type: cell-based, human
# Protocol: as §1, §2, §3, §4, §5
# UACC-62 = assay: NCI DTP cell line screen (SRB), Melanoma; assay type: cell-based
# ACHN = assay: NCI DTP cell line screen (SRB), Renal Cancer; assay type: cell-based, human
# Protocol: as §1, §2, §3, §4, §5
# CAKI-1 = assay: NCI DTP cell line screen (SRB), Renal Cancer; assay type: cell-based, human
# Protocol: as §1, §2, §3, §4, §5
# RXF 393 = assay: NCI DTP cell line screen (SRB), Renal Cancer; assay type: cell-based, human
# Protocol: as §1, §2, §3, §4, §5
# UO-31 = assay: NCI DTP cell line screen (SRB), Renal Cancer; assay type: cell-based, human
# Protocol: as §1, §2, §3, §4, §5
# [1] = read-out: LC50 (the source's name)
smiles,measurement,setting,value
"N=C(N)Nc1ccc(-n2nc(C(F)(F)F)cc2-c2ccc3c(ccc4ccccc43)c2)cc1 [Compound 71, 4-[5-(2-Phenanthrenyl)-3-(trifluoromethyl)-1H-pyrazol-1-yl]-phenyl-guanidine]",GI50,COLO 205,1.36 µM
same,TGI,COLO 205,2.69E−06
same,Mean Optical Densities,COLO 205; Log10 Concentration −4.0,0.151
same,Percent Growth,COLO 205; Log10 Concentration −4.0,−32%
same,Mean Optical Densities,COLO 205; Log10 Concentration −5.0,0.009
same,Percent Growth,COLO 205; Log10 Concentration −5.0,−96%
same,Mean Optical Densities,COLO 205; Log10 Concentration −6.0,0.930
same,Percent Growth,COLO 205; Log10 Concentration −6.0,73%
same,Mean Optical Densities,COLO 205; Log10 Concentration −7.0,1.028
same,Percent Growth,COLO 205; Log10 Concentration −7.0,83%
same,Mean Optical Densities,COLO 205; Log10 Concentration −8.0,1.146
same,Percent Growth,COLO 205; Log10 Concentration −8.0,95%
same,GI50,MALME-3M,1.01 µM
same,TGI,MALME-3M,2.33E−06
same,Mean Optical Densities,MALME-3M; Log10 Concentration −4.0,0.333
same,Percent Growth,MALME-3M; Log10 Concentration −4.0,−50%
same,Mean Optical Densities,MALME-3M; Log10 Concentration −5.0,0.089
same,Percent Growth,MALME-3M; Log10 Concentration −5.0,−87%
same,Mean Optical Densities,MALME-3M; Log10 Concentration −6.0,0.826
same,Percent Growth,MALME-3M; Log10 Concentration −6.0,50%
same,Mean Optical Densities,MALME-3M; Log10 Concentration −7.0,0.838
same,Percent Growth,MALME-3M; Log10 Concentration −7.0,54%
same,Mean Optical Densities,MALME-3M; Log10 Concentration −8.0,0.832
same,Percent Growth,MALME-3M; Log10 Concentration −8.0,52%
same,CC50,MALME-3M; [1],100 µM
same,GI50,SK-MEL-5,2.22 µM
same,Mean Optical Densities,SK-MEL-5; Log10 Concentration −4.0,0.363
same,Percent Growth,SK-MEL-5; Log10 Concentration −4.0,−34%
same,Mean Optical Densities,SK-MEL-5; Log10 Concentration −5.0,0.143
same,Percent Growth,SK-MEL-5; Log10 Concentration −5.0,−74%
same,Mean Optical Densities,SK-MEL-5; Log10 Concentration −6.0,1.812
same,Percent Growth,SK-MEL-5; Log10 Concentration −6.0,116%
same,Mean Optical Densities,SK-MEL-5; Log10 Concentration −7.0,1.762
same,Percent Growth,SK-MEL-5; Log10 Concentration −7.0,111%
same,Mean Optical Densities,SK-MEL-5; Log10 Concentration −8.0,1.611
same,Percent Growth,SK-MEL-5; Log10 Concentration −8.0,97%
same,TGI,SK-MEL-5; in M (unit assumed),4.07E−06
same,GI50,UACC-62,1.44 µM
same,TGI,UACC-62,2.74E−06
same,Mean Optical Densities,UACC-62; Log10 Concentration −4.0,0.272
same,Percent Growth,UACC-62; Log10 Concentration −4.0,−60%
same,Mean Optical Densities,UACC-62; Log10 Concentration −5.0,−0.041
same,Percent Growth,UACC-62; Log10 Concentration −5.0,−100%
same,Mean Optical Densities,UACC-62; Log10 Concentration −6.0,1.301
same,Percent Growth,UACC-62; Log10 Concentration −6.0,78%
same,Mean Optical Densities,UACC-62; Log10 Concentration −7.0,1.338
same,Percent Growth,UACC-62; Log10 Concentration −7.0,83%
same,Mean Optical Densities,UACC-62; Log10 Concentration −8.0,1.323
same,Percent Growth,UACC-62; Log10 Concentration −8.0,81%
same,CC50,UACC-62; [1],5.24 µM
same,GI50,ACHN,1.67 µM
same,Mean Optical Densities,ACHN; Log10 Concentration −4.0,0.291
same,Percent Growth,ACHN; Log10 Concentration −4.0,−22%
same,Mean Optical Densities,ACHN; Log10 Concentration −5.0,0.034
same,Percent Growth,ACHN; Log10 Concentration −5.0,−91%
same,Mean Optical Densities,ACHN; Log10 Concentration −6.0,0.964
same,Percent Growth,ACHN; Log10 Concentration −6.0,90%
same,Mean Optical Densities,ACHN; Log10 Concentration −7.0,0.902
same,Percent Growth,ACHN; Log10 Concentration −7.0,81%
same,Mean Optical Densities,ACHN; Log10 Concentration −8.0,0.898
same,Percent Growth,ACHN; Log10 Concentration −8.0,80%
same,TGI,ACHN; in M (unit assumed),3.15E−06
same,GI50,CAKI-1,1.83 µM
same,Mean Optical Densities,CAKI-1; Log10 Concentration −4.0,0.315
same,Percent Growth,CAKI-1; Log10 Concentration −4.0,−47%
same,Mean Optical Densities,CAKI-1; Log10 Concentration −5.0,−0.067
same,Percent Growth,CAKI-1; Log10 Concentration −5.0,−100%
same,Mean Optical Densities,CAKI-1; Log10 Concentration −6.0,1.804
same,Percent Growth,CAKI-1; Log10 Concentration −6.0,103%
same,Mean Optical Densities,CAKI-1; Log10 Concentration −7.0,1.642
same,Percent Growth,CAKI-1; Log10 Concentration −7.0,89%
same,Mean Optical Densities,CAKI-1; Log10 Concentration −8.0,1.735
same,Percent Growth,CAKI-1; Log10 Concentration −8.0,97%
same,TGI,CAKI-1; in M (unit assumed),3.22E−06
same,TGI,RXF 393,2.91E−06
same,Mean Optical Densities,RXF 393; Log10 Concentration −4.0,0.385
same,Percent Growth,RXF 393; Log10 Concentration −4.0,−4%
same,Mean Optical Densities,RXF 393; Log10 Concentration −5.0,0.156
same,Percent Growth,RXF 393; Log10 Concentration −5.0,−61%
same,Mean Optical Densities,RXF 393; Log10 Concentration −6.0,0.629
same,Percent Growth,RXF 393; Log10 Concentration −6.0,53%
same,Mean Optical Densities,RXF 393; Log10 Concentration −7.0,0.629
same,Percent Growth,RXF 393; Log10 Concentration −7.0,53%
same,Mean Optical Densities,RXF 393; Log10 Concentration −8.0,0.582
same,Percent Growth,RXF 393; Log10 Concentration −8.0,42%
same,GI50,UO-31,1.57 µM
same,Mean Optical Densities,UO-31; Log10 Concentration −4.0,0.288
same,Percent Growth,UO-31; Log10 Concentration −4.0,−35%
same,Mean Optical Densities,UO-31; Log10 Concentration −5.0,−0.030
same,Percent Growth,UO-31; Log10 Concentration −5.0,−100%
same,Mean Optical Densities,UO-31; Log10 Concentration −6.0,1.332
same,Percent Growth,UO-31; Log10 Concentration −6.0,87%
same,Mean Optical Densities,UO-31; Log10 Concentration −7.0,1.407
same,Percent Growth,UO-31; Log10 Concentration −7.0,94%
same,Mean Optical Densities,UO-31; Log10 Concentration −8.0,1.375
same,Percent Growth,UO-31; Log10 Concentration −8.0,91%
same,TGI,UO-31; in M (unit assumed),2.92E−06
